How the values were obtained:
[1] = biological target: T1, human sphingosine-1-phosphate receptor 1 (S1P1) (Homo sapiens, UniProt P21453); experiment: Inhibition of cAMP production (HTRF cAMP HiRange), S1P1 CHO-K1 cells; format: cell-based; conditions: for Emax: CHO-K1, efficacy normalized to maximum efficacy of fingolimod, read-out: hS1P1 CAMP SPAN; for EC50: read-out: hS1P1 CAMP pEC50 (converted)
Summary of the method: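 CHO-K1 cells co-expressing human S1P1 (C-terminal ProLink tag) and EA-β-arrestin2, plated overnight; after 30 min compound incubation at 37 °C, intracellular cAMP measured by HTRF TR-FRET following 1 h at room temperature. Values normalized to fingolimod.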
Target sequence in this assay (P21453 whole entry): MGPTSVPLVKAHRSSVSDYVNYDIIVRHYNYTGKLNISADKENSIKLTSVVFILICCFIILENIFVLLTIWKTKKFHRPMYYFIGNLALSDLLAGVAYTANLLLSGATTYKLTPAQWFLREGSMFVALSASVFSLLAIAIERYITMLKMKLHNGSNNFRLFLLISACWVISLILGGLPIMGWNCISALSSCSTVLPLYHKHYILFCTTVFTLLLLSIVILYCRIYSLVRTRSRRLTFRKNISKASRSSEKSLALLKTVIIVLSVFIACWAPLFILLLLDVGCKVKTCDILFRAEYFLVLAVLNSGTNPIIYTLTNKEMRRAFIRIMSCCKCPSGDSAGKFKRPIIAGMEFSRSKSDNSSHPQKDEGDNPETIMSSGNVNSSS

[2] = biological target: T1, human sphingosine-1-phosphate receptor 1 (S1P1); experiment: β-Arrestin2 recruitment assay (PathHunter), S1P1 CHO-K1 cells; format: cell-based; conditions: for Emax: efficacy normalized to maximum efficacy of fingolimod, read-out: hS1P1 B-arrestin2 SPAN; for EC50: β-arrestin2 recruitment, read-out: hS1P1 B-arrestin2 pEC50 (converted)
Summary of the method: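 CHO-K1 cells co-expressing EA-β-arrestin2 and ProLink-tagged human S1P1 plated overnight, then stimulated 60 min at 37 °C. Enzyme-fragment complementation (β-galactosidase) detected after 1 h at room temperature by luminescence; values normalized to fingolimod.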
Target sequence in this assay (P21453 whole entry): as above
Target sequence in this assay (P32121 whole entry partner): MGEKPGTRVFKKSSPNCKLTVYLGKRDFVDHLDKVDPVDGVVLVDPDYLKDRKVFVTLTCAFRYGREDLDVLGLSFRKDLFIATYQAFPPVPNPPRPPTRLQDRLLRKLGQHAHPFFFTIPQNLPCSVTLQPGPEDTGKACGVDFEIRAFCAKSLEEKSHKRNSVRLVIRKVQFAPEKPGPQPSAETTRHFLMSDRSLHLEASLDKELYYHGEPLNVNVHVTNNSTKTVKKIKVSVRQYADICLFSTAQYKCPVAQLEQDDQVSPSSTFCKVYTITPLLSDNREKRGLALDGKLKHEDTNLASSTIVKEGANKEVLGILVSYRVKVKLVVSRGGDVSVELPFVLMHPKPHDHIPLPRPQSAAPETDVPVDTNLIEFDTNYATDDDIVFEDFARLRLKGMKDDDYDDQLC

[3] = test system: peripheral blood lymphocytes; experiment: Lymphopenia: peripheral blood lymphocyte counts, acute and chronic s.c. dosing; format: in vivo; conditions: c57bl/6 mice
Protocol: Compounds were tested for changes in peripheral blood lymphocytes in C57bl/6 mice. In acute studies, animals (n=5/group) were dosed subcutaneously with test compound at a dose of 3 mg/kg. Animals were sacrificed at specific time points and […] of whole blood was collected in EDTA (K2) Eppendorf tubes. Blood was stored on ice and shipped immediately overnight delivery to Charles River Laboratories for analysis. CRL ran samples through their WBC/differential panel on an Advia 120 instrument. We received peripheral lymphocyte counts (10^3 cells/μl) for each blood sample. Treatment group means were compared to a vehicle treatment group for statistical significance. In chronic studies, animals (n=6-8/group) were dosed subcutaneously for three to seven days with test compound at doses that were at least 5-fold higher than the efficacious dose in pharmacology/behavioral assays. On the last day, animals were sacrificed 45 minutes to 6 hrs after the final dose. Whole blood was collected and analyzed as described for acute studies. […]

[4] = biological target: human sphingosine-1-phosphate receptor 2 (S1P2) (Homo sapiens, UniProt O95136); experiment: Selectivity: inositol monophosphate production (IP-one), S1P2 CHO-K1 cells; format: cell-based; conditions: for Emax: CHO-K1, efficacy normalized to maximal efficacy of CYM5520, read-out: hS1P2 IP-one SPAN; for EC50: inositol monophosphate accumulation, read-out: hS1P2 IP-one pEC50 (converted)
Chain of human sphingosine-1-phosphate receptor 2 (S1P2) (O95136 whole entry): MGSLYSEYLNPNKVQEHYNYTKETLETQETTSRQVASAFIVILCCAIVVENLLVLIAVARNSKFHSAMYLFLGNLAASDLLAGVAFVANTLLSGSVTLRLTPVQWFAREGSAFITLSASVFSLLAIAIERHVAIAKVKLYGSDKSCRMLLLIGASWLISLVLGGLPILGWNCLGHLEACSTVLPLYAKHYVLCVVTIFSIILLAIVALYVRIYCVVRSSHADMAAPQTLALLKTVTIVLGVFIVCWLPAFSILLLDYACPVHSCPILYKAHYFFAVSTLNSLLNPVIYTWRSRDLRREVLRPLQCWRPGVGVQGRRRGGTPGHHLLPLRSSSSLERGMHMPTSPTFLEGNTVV
Protocol: (§1) Cell Culturing and Assay Plating Cell lines were cultured in AssayComplete™ Media 6 (DiscoverX Corporation, Cat #: 920018GF2) at 37° C. and 5% CO2 in a humidified CO2 and temperature-controlled incubator. To begin assay plating, cells were washed with Dulbecco's phosphate buffered saline (CellGro, Cat #: 21-031-CV) and lifted from the culturing flask by incubation (37° C., 5 min) with CellStripper (Cellgro, Cat #: 25-056-CI). […] Plated cells were incubated overnight at 37° C. and 5% CO2 in a humidified CO2 and temperature-controlled incubator. Detecting Inhibition of cAMP Production
S1P2 Agonist-promoted G-protein responses were determined by measuring changes in intracellular inositol monophosphate using the IP-one TB kit (CisBio, Cat #: 62IPAPEJ) based on time-resolved fluorescence resonance energy transfer (TR-FRET) technology. AssayComplete™ Cell Plating 2 Reagent was removed and replaced with 1× IP-one stimulation buffer (as per manufacturer's instructions) along with test or control compounds at the desired concentrations.
Following a 60-minute incubation at 37° C. and 5% CO2 in a humidified CO2 and temperature-controlled incubator, the components of the IP-one TB kit were added as per the manufacturer's instructions. After an hour incubation at room temperature, plates were analyzed by a BMG PheraStar microplate reader.
(§2) These values are normalized to fimgolimod, a known agonist of the sphingosine-1-phosphate 3 and 5 receptor or CYM5520, a known agonist of the sphingosine-1-phosphate 2 receptor. The tables also include potency values (pEC50) for modulating discrete receptor-mediated activities (inhibition of cAMP production or inositol monophosphate accumulation).

[5] = biological target: sphingosine-1-phosphate receptor 5 (S1P5) (Homo sapiens, UniProt Q9H228); experiment: Selectivity: inhibition of cAMP production (HTRF), S1P5 CHO-K1 cells; format: cell-based; conditions: for Emax: CHO-K1, efficacy normalized to maximal efficacy of fimgolimod, read-out: hS1P5 cAMP SPAN; for EC50: inhibition of cAMP production, read-out: hS1P5 cAMP pEC50 (converted)
Chain of sphingosine-1-phosphate receptor 5 (S1P5) (Q9H228 whole entry): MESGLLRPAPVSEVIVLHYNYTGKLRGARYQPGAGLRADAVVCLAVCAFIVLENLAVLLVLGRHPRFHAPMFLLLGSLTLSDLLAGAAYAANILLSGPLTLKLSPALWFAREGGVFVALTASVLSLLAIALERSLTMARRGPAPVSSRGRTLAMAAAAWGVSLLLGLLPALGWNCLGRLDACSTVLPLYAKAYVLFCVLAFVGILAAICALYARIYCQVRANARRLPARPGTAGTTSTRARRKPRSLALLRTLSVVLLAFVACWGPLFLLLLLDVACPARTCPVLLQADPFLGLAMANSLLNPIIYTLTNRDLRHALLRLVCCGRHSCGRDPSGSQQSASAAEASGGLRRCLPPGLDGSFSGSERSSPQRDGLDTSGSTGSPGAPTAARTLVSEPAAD
Protocol: as §1
(§3) S1P3 and S1P5 Agonist-promoted G-protein responses were determined by measuring changes in intracellular cAMP using the HTRF® cAMP HiRange kit (CisBio, Cat #: 62AM6PEJ) based on time-resolved fluorescence resonance energy transfer (TR-FRET) technology. […] Following a 30-minute room temperature incubation the components of the cAMP HiRange kit were added as per the manufacturer's instructions. After an hour incubation at room temperature, plates were analyzed by a BMG PheraStar microplate reader.
as §2

[6] = biological target: human sphingosine-1-phosphate receptor 3 (S1P3) (Homo sapiens, UniProt Q99500); experiment: Selectivity: inhibition of cAMP production (HTRF), S1P3 CHO-K1 cells; format: cell-based; conditions: for Emax: CHO-K1, efficacy normalized to maximal efficacy of fimgolimod, read-out: hS1P3 cAMP SPAN; for EC50: inhibition of cAMP production, read-out: hS1P3 cAMP pEC50 (converted)
Chain of human sphingosine-1-phosphate receptor 3 (S1P3) (Q99500 whole entry): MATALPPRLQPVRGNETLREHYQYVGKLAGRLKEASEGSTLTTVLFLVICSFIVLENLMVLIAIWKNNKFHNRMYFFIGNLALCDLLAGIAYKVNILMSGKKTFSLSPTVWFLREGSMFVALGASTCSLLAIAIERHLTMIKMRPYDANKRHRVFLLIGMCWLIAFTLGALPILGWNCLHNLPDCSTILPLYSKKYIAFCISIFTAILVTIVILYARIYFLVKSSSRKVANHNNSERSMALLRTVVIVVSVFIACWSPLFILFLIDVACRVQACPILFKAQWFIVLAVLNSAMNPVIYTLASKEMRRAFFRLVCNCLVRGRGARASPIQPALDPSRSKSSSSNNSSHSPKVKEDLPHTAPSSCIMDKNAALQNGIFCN
Protocol: as §1, §3, §2

[7] = inhibition of cAMP production, potency
[8] = CHO-K1, β-arrestin2 recruitment
[9] = inhibition of cAMP production, S1P1

Row | Structure (SMILES) | Emax ([1]; inhibition of cAMP production) [%] | EC50 [1, 7] [µM] | Emax [2, 8] [%] | EC50 ([2]; potency) [µM] | Lymphopenia effect (peripheral blood lymphocytes) ([3]; 6 mg/kg sc, 7 days) | Emax [4] [%] | EC50 [4] [µM] | Emax [5] [%] | EC50 [5] [µM] | Emax [6] [%] | EC50 [6] [µM] | Emax [1] [%] | EC50 [1, 9] [µM] | Emax ([2]; CHO-K1) [%] | EC50 ([2]; S1P1) [µM] | Lymphopenia effect (peripheral blood lymphocytes) ([3]; 3 mg/kg sc, 45 min and 2 hr)
1 | Cc1cnc(-c2nc(-c3ccc4c(c3)nnn4C(C)C)no2)cn1 [Compound 234, 3-(1-isopropyl-1H-benzo[d][1,2,3]triazol-5-yl)-5-(5-methyl-pyrazin-2-yl)-1,2,4-oxadiazole] | < 75 | > 0.316 | < 75 | > 10 | no change: 6 mg/kg, 7 days |  |  |  |  |  |  |  |  |  |  | 
2 | Cc1ccccc1-c1nc(-c2ccc3c(c2)nnn3C(C)C)no1 [Compound 99, 3-(1-isopropyl-1H-benzo[d][1,2,3]triazol-5-yl)-5-(o-tolyl)-1,2,4-oxadiazole] | > 75 | < 0.316 | > 75 | < 10 | no change: 6 mg/kg, 7 days | < 50 | > 10 | > 50 | > 10 | < 50 | > 10 |  |  |  |  | 
3 | CN1C(=O)CCc2cc(-c3nc(-c4cccnc4)no3)ccc21 [Compound 384, 1-methyl-6-[3-(pyridin-3-yl)-1,2,4-oxadiazol-5-yl]-1,2,3,4-tetrahydroquinolin-2-one] |  |  |  |  |  |  |  |  |  |  |  | > 75 | > 0.316 | < 75 | > 10 | no change: 3 mg/kg; 45 min and 2 hr
4 | COc1cccc(-c2noc(-c3ccc4c(c3)nnn4C(C)C)n2)n1 [Compound 19, 5-[3-(6-methoxypyridin-2-yl)-1,2,4-oxadiazol-5-yl]-1-(propan-2-yl)-1H-1,2,3-benzotriazole] | < 75 | > 0.316 | < 75 | < 10 | no change: 6 mg/kg, 7 days |  |  |  |  |  |  |  |  |  |  | 
5 | Cc1ccsc1-c1noc(-c2ccc3c(c2)nnn3C(C)C)n1 [Compound 169, 5-[3-(3-methyl-thiophen-2-yl)-1,2,4-oxadiazol-5-yl]-1-(propan-2-yl)-1H-1,2,3-benzotriazole] | > 75 | < 0.316 | > 75 | < 10 | no change: 6 mg/kg, 7 days |  |  |  |  |  |  |  |  |  |  | 
6 | N#Cc1cc(-c2nc(-c3ccc4oc(=O)[nH]c4c3)no2)ccc1NCC1CC1 [Compound 423, 2-((cyclopropyl-methyl)amino)-5-(3-(2-oxo-2,3-dihydrobenzo[d]oxazol-5-yl)-1,2,4-oxadiazol-5-yl)benzonitrile] |  |  |  |  | no change: 6 mg/kg, 7 days | < 50 | < 10 |  |  | < 50 | < 10 | > 75 | < 0.316 | > 75 | < 10 | 
7 | COc1ccc(-c2noc(-c3ccc4c(c3)nnn4C(C)C)n2)c(C)c1 [Compound 55, 5-(1-isopropyl-1H-benzo[d][1,2,3]triazol-5-yl)-3-(4-methoxy-2-methylphenyl)-1,2,4-oxadiazole] | > 75 | < 0.316 | > 75 | < 10 | no change: 6 mg/kg, 7 days |  |  |  |  |  |  |  |  |  |  | 
8 | CC(C)n1nnc2cc(-c3nc(-c4cccc5c4OCO5)no3)ccc21 [Compound 32, 3-(benzo[d][1,3]dioxol-4-yl)-5-(1-isopropyl-1H-benzo[d][1,2,3]triazol-5-yl)-1,2,4-oxadiazole] | > 75 | < 0.316 | < 75 | < 10 | no change: 6 mg/kg, 7 days | < 50 | > 10 | < 50 | > 10 | < 50 | > 10 |  |  |  |  | 
9 | Cc1ccccc1-c1noc(-c2ccc3c(c2)nnn3C(C)(C)C)n1 [Compound 59, 1-tert-butyl-5-[3-(2-methylphenyl)-1,2,4-oxadiazol-5-yl]-1H-1,2,3-benzotriazole] | > 75 | < 0.316 | > 75 | < 10 | no change: 6 mg/kg, 7 days |  |  |  |  |  |  |  |  |  |  | 
10 | CCC1(CC)CC(=O)c2cc(-c3nc(-c4ccc(NC(C)=O)cc4OC)no3)ccc2O1 [Compound 531, N-{4-[5-(2,2-diethyl-4-oxo-3,4-dihydro-2H-1-benzopyran-6-yl)-1,2,4-oxadiazol-3-yl]-3-methoxyphenyl} acetamide] |  |  |  |  | no change: 6 mg/kg, 7 days |  |  |  |  |  |  | > 75 | < 0.316 | > 75 | < 10 | 
11 | COc1ccccc1-c1nc(-c2ccc3c(c2)nnn3C(C)C)no1 [Compound 287, 3-(1-isopropyl-1H-benzo[d][1,2,3]triazol-5-yl)-5-(2-methoxy-phenyl)-1,2,4-oxadiazole] | > 75 | < 0.316 | > 75 | < 10 | no change: 6 mg/kg, 7 days | < 50 | > 10 | < 50 | > 10 | < 50 | > 10 |  |  |  |  | 
12 | CC(C)n1nnc2cc(-c3nc(-c4ccncc4C(F)(F)F)no3)ccc21 [Compound 455, 1-(propan-2-yl)-5-{3-[3-(trifluoromethyl)pyridin-4-yl]-1,2,4-oxadiazol-5-yl}-1H-1,2,3-benzotriazole] |  |  |  |  | no change: 6 mg/kg, 7 days |  |  |  |  |  |  |  | < 0.316 |  |  | 
13 | CC(F)(F)CNc1ccc(-c2nnc(-c3ccc4[nH]ncc4c3)o2)cc1C#N [Compound 355, 2-[(2,2-difluoro-propyl)amino]-5-[5-(1H-indazol-5-yl)-1,3,4-oxadiazol-2-yl]benzonitrile] | > 75 | < 0.316 | > 75 |  | no change: 6 mg/kg, 7 days |  |  |  |  |  |  |  |  |  |  | 
